According to PMC9165844 (PLoS ONE, 2022):
Entries after “also recorded” stand apart in the source; their conditions may differ.

Experiments:
astrocytes = assay: Cytotoxic effect by MTT assay on astrocytes; conditions: for Astrocytes viability: control for cytotoxicity effect; for Cytotoxicity in astrocyte cultures: MTT, 12.5-200 μM
[1] = Solubility in solvents noted for the synthesized compounds; assay type: physicochemical; conditions: qualitative
AChE = AChE (Electrophorus electricus, UniProt O42275); assay: biochemical; conditions: for Ki: read-out: AChE inhibition constant (Ki)
AChE, sequence (O42275 24-633 limits assumed): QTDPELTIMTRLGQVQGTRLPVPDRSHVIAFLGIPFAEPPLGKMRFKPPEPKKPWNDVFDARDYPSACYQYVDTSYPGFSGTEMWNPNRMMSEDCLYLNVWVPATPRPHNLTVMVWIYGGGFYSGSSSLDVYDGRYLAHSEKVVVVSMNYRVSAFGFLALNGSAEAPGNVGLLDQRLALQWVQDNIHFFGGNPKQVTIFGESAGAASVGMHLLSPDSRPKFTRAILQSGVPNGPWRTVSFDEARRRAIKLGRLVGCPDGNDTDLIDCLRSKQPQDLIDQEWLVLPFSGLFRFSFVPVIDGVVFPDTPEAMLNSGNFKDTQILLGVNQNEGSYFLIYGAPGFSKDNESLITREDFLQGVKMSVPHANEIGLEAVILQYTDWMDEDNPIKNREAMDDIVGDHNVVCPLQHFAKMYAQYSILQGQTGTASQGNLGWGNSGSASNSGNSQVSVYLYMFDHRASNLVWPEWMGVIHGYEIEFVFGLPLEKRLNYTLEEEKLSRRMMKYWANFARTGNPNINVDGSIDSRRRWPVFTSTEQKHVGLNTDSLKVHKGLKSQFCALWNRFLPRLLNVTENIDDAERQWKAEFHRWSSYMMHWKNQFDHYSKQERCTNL

Aβ1–42 = molecular target: T1, Aβ1–42 (Homo sapiens, UniProt P05067); assay: Inhibition of Aβ1–42 aggregation by Thioflavin T (ThT) assay; assay type: biochemical; conditions: compound at 100 μM, 48 h, 37°C, ThT fluorescence; read-out: Percentage of inhibition of Aβ1–42 fibrillation
T1 construct: Aβ of 42 aa residues (Aβ1–42) represents the most amyloidogenic and toxic form; purchased Calbiochem PP69
T1 sequence (P05067 672-713): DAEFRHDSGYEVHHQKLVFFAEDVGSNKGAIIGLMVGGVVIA

NIH3T3 fibroblasts = assay: Cytotoxic effect by MTT assay on NIH3T3 fibroblasts; conditions: 12.5-200 μM
PC12 = assay: Cytotoxic effect by MTT assay on PC12 cells; conditions: 12.5-200 μM
BACE 1 = BACE 1 (Homo sapiens, UniProt P56817); assay: Inhibition of BACE 1 activity (FRET kit); conditions: for BACE1 inhibitory activity (in words): FRET
BACE 1, sequence (P56817 46-501): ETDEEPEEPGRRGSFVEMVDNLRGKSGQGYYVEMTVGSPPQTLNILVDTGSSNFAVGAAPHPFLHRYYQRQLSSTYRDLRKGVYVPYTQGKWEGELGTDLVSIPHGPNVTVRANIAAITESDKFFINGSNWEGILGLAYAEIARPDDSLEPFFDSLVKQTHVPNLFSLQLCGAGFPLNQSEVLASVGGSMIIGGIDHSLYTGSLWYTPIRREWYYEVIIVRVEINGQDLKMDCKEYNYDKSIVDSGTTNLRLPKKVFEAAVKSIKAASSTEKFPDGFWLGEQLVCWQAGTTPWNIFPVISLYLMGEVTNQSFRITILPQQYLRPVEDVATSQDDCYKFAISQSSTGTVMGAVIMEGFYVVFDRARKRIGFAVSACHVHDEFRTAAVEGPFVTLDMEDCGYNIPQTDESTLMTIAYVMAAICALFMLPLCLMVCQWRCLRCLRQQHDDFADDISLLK

Row | Structure (SMILES) | Astrocytes viability (astrocytes; at 100 μM) [%] | Astrocytes viability (astrocytes; at concentrations 1 μM ≤) | Solubility (solvents) [1] | AChE inhibitory activity (in words) (AChE) | Ki (AChE) [µM] | inhibition at 100 µM (Aβ1–42) [%] | Cytotoxicity in fibroblast cultures (NIH3T3 fibroblasts) | Cytotoxicity in PC12 cell cultures (PC12) | Cytotoxicity in astrocyte cultures (astrocytes) | IC50 (BACE 1) [µM] | BACE1 inhibitory activity (in words) (BACE 1)
1 | [Cl][Cd][Cl] [Cadmium chloride, reference compound] | 25 | above 80% |  |  |  |  |  |  |  |  | 
2 | COc1ccc(CN)cc1OCCN1CCCCC1 [Compound F2S4-m, (4-methoxy-3-(2-(piperidin-1-yl)ethoxy)phenyl) methanamine] |  |  | MetOH, EtOH, Acetone, CHCl3, EtOAc, H2O | showed inhibitory activity | 0.4 | 60.9 | not cytotoxic | not cytotoxic | not cytotoxic | 16 | showed inhibitory activity
3 | COc1cc(CN)ccc1OCCN1CCCCC1 [Compound F2S4-p, (3-methoxy-4-(2-(piperidin-1-yl)ethoxy)phenyl) methanamine] |  |  | MetOH, EtOH, water | no significant effect; also recorded: did not show inhibitory activity; also recorded: did not show inhibition | > 100 | 42.1 | showed cytotoxic |  |  |  | not possible to determine its IC50 value; also recorded: did not show inhibitory activity; also recorded: did not show inhibition
4 | COc1ccc(CN)cc1OCCN1CCCC1 [Compound F3S4-m, (4-methoxy-3-(2-(pyrrolidin-1-yl)ethoxy)phenyl) methanamine] |  |  | MetOH, EtOH, Acetone | showed inhibitory activity | 0.19 | 30.5 | not cytotoxic | not cytotoxic | not cytotoxic | 8.38 | showed inhibitory activity
